# Patent US20060121449A1, “Method for selection of compounds which inhibit clonal cell growth and use thereof” (priority 2002, published 2006)
# “Also recorded” adds a separate entry of the source. Read-outs that look alike come from different tables or passages of the source.
# Assays:
# [1] = tested on: spleen antibody producing cells against sheep red cells; conditions: from the literature; cited from earlier work
# [2] = tested on: BHK21/c13 (normal baby hamster kidney cells); conditions: Tjøtta E. (1968); cited from earlier work
# [3] = tested on: polyoma virus transformed BHK21/c13 cells, line S100T1;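 note: soft agar cultures in 24-well plates with a cell density gradient in the top layer, compounds applied from DMSO stocks, clonal growth scored in sparse versus dense areas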;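 for Clonal growth, H high density area of cell gradient, High: grades rise with clonal growth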;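 for Clonal growth, H high density area of cell gradient, Low: grades rise with clonal growth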;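 for Clonal growth, H high density area of cell gradient, Medium: grades rise with clonal growth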;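 for Clonal growth, L low density area of cell gradient, High: grades rise with clonal growth and minus or plus-minus means none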;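 for Clonal growth, L low density area of cell gradient, Low: grades rise with clonal growth and minus or plus-minus means none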
# [4] = tested on: polyoma virus transformed BHK21/c13 cells, line S100T1; assay: Collocation inhibition test: clonal growth in sparsely and densely seeded areas of a cell density gradient of S100T1 cells in soft agar (Exp 13, 17, 19-26); conditions: for Significance: Exp 17 day 14;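 for Clonal growth, H high density area of cell gradient, High: grades rise with clonal growth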;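 for Clonal growth, H high density area of cell gradient, Low: grades rise with clonal growth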;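 for Clonal growth, H high density area of cell gradient, Medium: grades rise with clonal growth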;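 for Clonal growth, L low density area of cell gradient, High: grades rise with clonal growth and minus or plus-minus means none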;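 for Clonal growth, L low density area of cell gradient, Low: grades rise with clonal growth and minus or plus-minus means none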;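 for all read-outs here: soft agar cultures in 24-well plates with a cell density gradient in the top layer, compounds applied from DMSO stocks, clonal growth scored in sparse versus dense areas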
# [5] = tested on: polyoma virus transformed BHK21/c13 cells, clone S100T1; assay: Clonal test: clonal growth of S100T1 cells in soft agar (Exp 2, 4, 6, 15, 16); type: cell-based, hamster; conditions: for Significance: Exp 15, 5th day, ” = as line above; for Clonal growth: Exp 15, plate read the 5th day
# [6] = preliminary results, Exp 13-18, 21-26, high concentration
# [7] = preliminary results, Exp 13-18, 21-26, low concentration
# [8] = preliminary results, Exp 13-18, 21-26, medium concentration
# [9] = High conc., μM in wells: No 1 (4-OH—OPB) 20, 2 (Colchicine) 0.1, 3 (Diphenylhydantoin) 100, 4 (Podophyllotoxin) 0.3, 5 (Piroxicam) 50, 6 (Diclofenak) 100
# [10] = Low conc., μM in wells: No 1 (4-OH—OPB) 2, 2 (Colchicine) 0.01, 3 (Diphenylhydantoin) 10, 4 (Podophyllotoxin) 0.03, 5 (Piroxicam) 5, 6 (Diclofenak) 10, 7 (Ibuprofen) 100, 8 (Naproxen) 50, 9 (Acetylsalicylic acid) 100
# [11] = 4-OH-OPB analogues, S100T1 in soft agar, high concentration
# [12] = 4-OH-OPB analogues, S100T1 in soft agar, low concentration
# [13] = 4-OH-OPB analogues, S100T1 in soft agar, medium concentration
# [14] = Exp 17, Low: #1 Colchicine 0.1, #2 Podophyllotoxin 0.3, #3 Etoposide 20, #4 4-OH—OPB 0.67 μM in wells, #5 DMSO 1.16 μl
# [15] = Exp 17, Medium: #1 Colchicine 0.3, #2 Podophyllotoxin 0.9, #3 Etoposide 60, #4 4-OH—OPB 2 μM in wells, #5 DMSO 6.8 μl
# [16] = Experiment 23, A (area with high cell density), High concentration, 48 hours
# [17] = Experiment 23, A (area with high cell density), Low concentration, 48 hours
# [18] = Experiment 23, A (area with high cell density), Medium concentration, 48 hours
# [19] = Experiment 23, B (area with low cell density), High concentration, 48 hours
# [20] = Experiment 23, B (area with low cell density), Low concentration, 48 hours
# [21] = Experiment 23, B (area with low cell density), Medium concentration, 48 hours
# [22] = Summary Table 3 of analogue tests (experiments 22-25), H (high cell density), High concentration
# [23] = Summary Table 3 of analogue tests (experiments 22-25), H (high cell density), Low concentration
# [24] = Summary Table 3 of analogue tests (experiments 22-25), H (high cell density), Medium concentration
# [25] = Summary Table 3 of analogue tests (experiments 22-25), L (low cell density), High concentration
# [26] = Summary Table 3 of analogue tests (experiments 22-25), L (low cell density), Low concentration
# [27] = Summary Table 3 of analogue tests (experiments 22-25), L (low cell density), Medium concentration
# [28] = Exp 15, 32000 S100T1 cells/well
compound,measurement,setting,value
CN(C)N [1-1-dimethylhydrazine],Effect on development of plaques in Jerne's test,[1],enhances development of plaques
"Insulin: Insulin Actrapid (Novo), 0.1 i.u./ml, growth factor",Stimulation of clonal growth in soft agar culture,[2],"stimulate clonal growth of normal, but not transformed cells"
"COc1cc([C@@H]2c3cc4c(cc3[C@@H](O[C@@H]3O[C@@H]5CO[C@@H](C)O[C@H]5[C@H](O)[C@H]3O)[C@H]3COC(=O)[C@H]23)OCO4)cc(OC)c1O [Etoposide, reference compound]",Toxicity for body or dense cell populations,[3],yes
same,Inhibition of cells in crowded areas,[4]; Exp 17,induce the best inhibition of cells in crowded areas
same,Effect on growth in high- and low-density areas,"[4]; Exp 17, 144000 S100T1 cells/well",growth inhibition of both high and low-density areas; also recorded: significant inhibition of growth in crowded areas
same,"Clonal growth, results read on the day 14","[4]; Exp 17, a: close to densely seeded cell areas, High: Colchicine 1, Podophyllotoxin 3, Etoposide 200, 4-OH—OPB 6.7 μM in wells, DMSO 29.2 μl",(+)
same,"Clonal growth, results read on the day 14","[4]; Exp 17, a: close to densely seeded cell areas, Low: Colchicine 0.1, Podophyllotoxin 0.3, Etoposide 20, 4-OH—OPB 0.67 μM in wells, DMSO 1.16 μl",+
same,"Clonal growth, results read on the day 14","[4]; Exp 17, a: close to densely seeded cell areas, Medium: Colchicine 0.3, Podophyllotoxin 0.9, Etoposide 60, 4-OH—OPB 2 μM in wells, DMSO 6.8 μl",+
same,"Clonal growth, results read on the day 14","[4]; Exp 17, b: sparsely seeded areas in the same agar culture, High: Colchicine 1, Podophyllotoxin 3, Etoposide 200, 4-OH—OPB 6.7 μM in wells, DMSO 29.2 μl",(+)
same,"Clonal growth, results read on the day 14","[4]; Exp 17, b: sparsely seeded areas in the same agar culture, Low: Colchicine 0.1, Podophyllotoxin 0.3, Etoposide 20, 4-OH—OPB 0.67 μM in wells, DMSO 1.16 μl",(+)
same,"Clonal growth, results read on the day 14","[4]; Exp 17, b: sparsely seeded areas in the same agar culture, Medium: Colchicine 0.3, Podophyllotoxin 0.9, Etoposide 60, 4-OH—OPB 2 μM in wells, DMSO 6.8 μl",(+)
same,Clones in sparsely seeded locations of the agar,"[4]; Exp 17, compared with 4-OH-OPB",allow the growth of a few small clones in sparsely seeded locations of the agar; also recorded: to allow the growth of a few small clones in sparsely
same,Significance,"[4]; a: close to densely seeded cell areas, High: Colchicine 1, Podophyllotoxin 3, Etoposide 200, 4-OH—OPB 6.7 μM in wells, DMSO 29.2 μl",Possible
same,Significance,"[4]; a: close to densely seeded cell areas, Low: Colchicine 0.1, Podophyllotoxin 0.3, Etoposide 20, 4-OH—OPB 0.67 μM in wells, DMSO 1.16 μl",No
same,Significance,"[4]; a: close to densely seeded cell areas, Medium: Colchicine 0.3, Podophyllotoxin 0.9, Etoposide 60, 4-OH—OPB 2 μM in wells, DMSO 6.8 μl",No
same,Significance,"[4]; b: sparsely seeded areas, High: Colchicine 1, Podophyllotoxin 3, Etoposide 200, 4-OH—OPB 6.7 μM in wells, DMSO 29.2 μl",Possible
same,Significance,"[4]; b: sparsely seeded areas, Low: Colchicine 0.1, Podophyllotoxin 0.3, Etoposide 20, 4-OH—OPB 0.67 μM in wells, DMSO 1.16 μl",Possible
same,Significance,"[4]; b: sparsely seeded areas, Medium: Colchicine 0.3, Podophyllotoxin 0.9, Etoposide 60, 4-OH—OPB 2 μM in wells, DMSO 6.8 μl",Possible
same,Control of metastatic cells leaving tumour,"[4]; ability of cells to leave a tumour, grow and infiltrate locally or grow in sparsely seeded areas, concluded from Exp 17",probably not
same,"Clonal growth, H high density area of cell gradient, High",[4]; [6],(+)
same,"Clonal growth, L low density area of cell gradient, High",[4]; [6],(+)
same,"Clonal growth, H high density area of cell gradient, Low",[4]; [7],+
same,"Clonal growth, L low density area of cell gradient, Low",[4]; [7],(+)
same,"Clonal growth, H high density area of cell gradient, Medium",[4]; [8],+
same,"Clonal growth, L low density area of cell gradient, Medium",[4]; [8],(+)
same,Control of settlement of metastatic cells,"[4]; single cells or very few cells spread to distant sites, concluded from Exp 17",partly
"CCCCC(O)(C(=O)Nc1ccccc1)C(=O)Nc1ccc(O)cc1 (centres unmarked) [#2, 2-Butyl-2-hydroxy-N-(4-hydroxy-phenyl)-N′-phenyl malonamide]",Significance,[5]; [9],no
same,Significance,[5]; [10],no
same,Clonal growth,[5]; [10],++
same,"Clonal growth, H: high density area of cell gradient, High",[4]; [11],++
same,"Clonal growth, L: low density area of cell gradient, High",[4]; [11],−
same,"Clonal growth, H: high density area of cell gradient, Low",[4]; [12],++(+)
same,"Clonal growth, L: low density area of cell gradient, Low",[4]; [12],++
same,"Clonal growth, H: high density area of cell gradient, Medium",[4]; [13],++
same,"Clonal growth, L: low density area of cell gradient, Medium",[4]; [13],++
same,Clonal growth read on the 6th day after seeding,[4]; [14],+
same,Clonal growth read on the 6th day after seeding,[4]; [15],(+
same,Clonal growth,[4]; [16],++
same,Clonal growth,[4]; [17],++(+)
same,Clonal growth,[4]; [18],++
same,Clonal growth,[4]; [19],−
same,Clonal growth,[4]; [20],++
same,Clonal growth,[4]; [21],++
same,Clonal growth,[4]; [22],++
same,Clonal growth,[4]; [23],++(+)
same,Clonal growth,[4]; [24],++
same,Clonal growth,[4]; [25],−
same,Clonal growth,[4]; [26],++
same,Clonal growth,[4]; [27],++
same,"Clonal inhibition by 4-OH-OPB analogues, summary of Exp 22-25",[4]; sparsely seeded areas while densely seeded areas of the same culture showed significant growth,complete inhibition of growth in sparsely seeded areas
"O=C(O)Cc1ccccc1Nc1c(Cl)cccc1Cl [Diclofenac, reference compound]",Effect on clonal growth at 10 μM,[5]; [28],probable significant increase in clonal growth
same,Effect on clonal growth at 10-100 μM,[5]; [28],no significant inhibition
same,"Anti-clonal effect, summary of Exp 15",[5]; S100T1 in soft agar,increased clonal growth at low concentration
same,"Clonal growth, L low density area of cell gradient, High",[4]; [6],++
same,"Clonal growth, L low density area of cell gradient, Low",[4]; [7],++(+)
same,Effect on cell cloning in soft agar,"[4]; preliminary results, in words",A possible increase of clonal growth
"Oc1ccc(N=Nc2ccccc2)cc1 [#1, p-hydroxy-azobenzene]",Significance,[5]; [9],yes
same,Significance,[5]; [10],yes
same,Clonal growth,"[5]; High conc., μM in wells: No 1 (4-OH—OPB) 20, 2 (Colchicine) 0.1, 3 (Diphenylhydantoin) 100, 4 (Podophyllotoxin) 0.3, 5 (Piroxicam) 50, 6 (Diclofenak) 100, 7 (Ibuprofen) 1000, 8 (Naproxen) 500, 9 (Acetylsalicylic acid) 1000",−
same,Clonal growth,[5]; [10],−
same,"Clonal growth, H: high density area of cell gradient, Low",[4],+++
same,"Clonal growth, H: high density area of cell gradient, Medium",[4],+++
same,"Clonal growth, L: low density area of cell gradient, High",[4],+−
same,"Clonal growth, L: low density area of cell gradient, Low",[4],++
same,"Clonal growth, L: low density area of cell gradient, Medium",[4],++
same,"Clonal inhibition by 4-OH-OPB analogues, summary of Exp 22-25",[4],complete inhibition of growth in sparsely seeded areas
same,Clonal growth read on the 3rd day after seeding,"[4]; Exp 17, High: #1 Colchicine 1, #2 Podophyllotoxin 3, #3 Etoposide 200, #4 4-OH—OPB 6.7 μM in wells, #5 DMSO 29.2 μl",−
same,Clonal growth read on the 3rd day after seeding,[4]; [14],++
same,Clonal growth read on the 6th day after seeding,[4]; [14],+
same,Clonal growth read on the 3rd day after seeding,[4]; [15],++
same,Clonal growth read on the 6th day after seeding,[4]; [15],+
same,Clonal growth,[4]; [16],+(+)
same,Clonal growth,[4]; [17],+++
same,Clonal growth,[4]; [18],+++
same,Clonal growth,[4]; [19],+−
same,Clonal growth,[4]; [20],++
same,Clonal growth,[4]; [21],++
same,Clonal growth,[4]; [22],+(+)
same,Clonal growth,[4]; [23],+++
same,Clonal growth,[4]; [24],+++
same,Clonal growth,[4]; [25],+−
same,Clonal growth,[4]; [26],++
same,Clonal growth,[4]; [27],++
